Converted amounts (≈) assume the structure as drawn.
What was measured:
[1] = test system: Staph. aureus 209P vancomycin resistant mutant; assay: MIC, standard microtiter assay; assay type: cell-based; conditions: Staphylococcus aureus, read-out: MIC in μg/ml
Procedure: (§1) The in vitro minimal inhibitory concentration (MIC) and the in vitro minimal bactericidal concentration (MBC) of the AAJ-271 aglycones, pseudo-aglycone and vancomycin were determined for a number of microorganisms using the standard microtiter assay procedures.

[2] = test system: Staph. epidermidis 2261; assay: MIC, standard microtiter assay; assay type: cell-based; conditions: Staphylococcus epidermidis; Staph. epidermidis 2261; Table VIII; read-out: MIC
Procedure: as §1

[3] = test system: Staph. epidermidis 2588; assay: MBC, standard assay procedures; assay type: cell-based; conditions: Staphylococcus epidermidis; Staph. epidermidis 2588; Table VIII; read-out: MBC
Procedure: as §1

[4] = test system: Staph. aureus 209P; assay: MBC, standard assay procedures; assay type: cell-based; conditions: Staphylococcus aureus; Staph. aureus 209P; Table VIII; read-out: MBC
Procedure: as §1

[5] = test system: Staph. aureus 910; assay: MBC, standard assay procedures; assay type: cell-based; conditions: Staphylococcus aureus; Staph. aureus 910; Table VIII; read-out: MBC
Procedure: as §1

[6] = test system: Staph. aureus 209P vancomycin resistant mutant; assay: MBC, standard assay procedures; assay type: cell-based; conditions: Staphylococcus aureus, read-out: MBC in μg/ml
Procedure: as §1

[7] = test system: Strep. pyogenes (Group A); assay: MBC, standard assay procedures; assay type: cell-based; conditions: Streptococcus pyogenes; Strep. pyogenes (Group A); Table VIII; read-out: MBC
Procedure: as §1

[8] = test system: Staph. epidermidis 2256; assay: MBC, standard assay procedures; assay type: cell-based; conditions: Staphylococcus epidermidis; Staph. epidermidis 2256; Table VIII; read-out: MBC
Procedure: as §1

[9] = test system: Staph. saprophyticus 2657; assay: MBC, standard assay procedures; assay type: cell-based; conditions: Staphylococcus saprophyticus; Staph. saprophyticus 2657; Table VIII; read-out: MBC
Procedure: as §1

[10] = test system: Staph. epidermidis 2261; assay: MBC, standard assay procedures; assay type: cell-based; conditions: Staphylococcus epidermidis; Staph. epidermidis 2261; Table VIII; read-out: MBC
Procedure: as §1

[11] = test system: Staph. aureus HH127; assay: Mouse protection assay; assay type: in vivo; conditions: Staphylococcus aureus, 1 h; mice; intraperitoneal s.c. infection; Staph. aureus HH127, Dosage as No. of LD50's = 4; treatment one hour post infection; Table X; read-out: ED50
[12] = test system: Staph. aureus 2620; assay: MIC, standard microtiter assay; assay type: cell-based; conditions: Staphylococcus aureus; Staph. aureus 2620; Table VIII; read-out: MIC
Procedure: (§2) The in vitro minimal inhibitory concentration (MIC) of the AAJ-271 complex and its factors, and vancomycin were determined for a number of microorganisms using the standard microtite'r assay procedures. The results are shown in the following tables, each of which represents a different production run of the complex.
as §1

[13] = test system: Staph. epidermidis 2588; assay: MIC, standard microtiter assay; assay type: cell-based; conditions: Staphylococcus epidermidis; Staph. epidermidis 2588; Table VIII; read-out: MIC
Procedure: as §2, §1

[14] = test system: Staph. aureus 209P; assay: MIC, standard microtiter assay; assay type: cell-based; conditions: Staphylococcus aureus; Staph. aureus 209P; Table VIII; read-out: MIC
Procedure: as §2, §1

[15] = test system: Staph. aureus 910; assay: MIC, standard microtiter assay; assay type: cell-based; conditions: Staphylococcus aureus; Staph. aureus 910; Table VIII; read-out: MIC
Procedure: as §2, §1

[16] = test system: Staph. epidermidis 2265; assay: MIC, standard microtiter assay; assay type: cell-based; conditions: Staphylococcus epidermidis; Staph. epidermidis 2265; Table VIII; read-out: MIC
Procedure: as §2, §1

[17] = test system: Strep. faecalis 657; assay: MIC, standard microtiter assay; assay type: cell-based; conditions: Enterococcus faecalis; Strep. faecalis 657; Table VIII; read-out: MIC
Procedure: as §2, §1

[18] = test system: Strep. pyogenes (Group A); assay: MIC, standard microtiter assay; assay type: cell-based; conditions: Streptococcus pyogenes; Strep. pyogenes (Group A); Table VIII; read-out: MIC
Procedure: as §2, §1

[19] = test system: Staph. haemolyticus 651; assay: MIC, standard microtiter assay; assay type: cell-based; conditions: Staphylococcus haemolyticus; Staph. haemolyticus 651; Table VIII; read-out: MIC
Procedure: as §2, §1

[20] = test system: Staph. epidermidis 2256; assay: MIC, standard microtiter assay; assay type: cell-based; conditions: Staphylococcus epidermidis; Staph. epidermidis 2256; Table VIII; read-out: MIC
Procedure: as §2, §1

[21] = test system: Staph. aureus 675; assay: MIC, standard microtiter assay; assay type: cell-based; conditions: Staphylococcus aureus; Staph. aureus 675; Table VIII; read-out: MIC
Procedure: as §2, §1

[22] = test system: Staph. saprophyticus 2657; assay: MIC, standard microtiter assay; assay type: cell-based; conditions: Staphylococcus saprophyticus; Staph. saprophyticus 2657; Table VIII; read-out: MIC
Procedure: as §2, §1

[23] = test system: Staph. epidermidis 2479; assay: MIC, standard microtiter assay; assay type: cell-based; conditions: Staphylococcus epidermidis; Staph. epidermidis 2479; Table VIII; read-out: MIC
Procedure: as §2, §1

[24] = test system: Staph. aureus HH127; assay: MIC, standard microtiter assay; assay type: cell-based; conditions: Staphylococcus aureus; Staph. aureus HH127; Table VIII; read-out: MIC
Procedure: as §2, §1

[25] = test system: Strep. faecalis 34358; assay: MIC, standard microtiter assay; assay type: cell-based; conditions: Enterococcus faecalis; Strep. faecalis 34358; Table VIII; read-out: MIC
Procedure: as §2, §1

[26] = test system: Staph. aureus 2620; assay: MBC, standard assay procedures; assay type: cell-based; conditions: Staphylococcus aureus; Staph. aureus 2620; Table VIII; read-out: MBC
Procedure: (§3) The in vitro minimal bactericidal concentration (MBC) of the AAJ-271 C, C2 and C3 factors and vancomycin were determined for a number of microorganisms using standard assay procedures.
as §1

[27] = test system: Staph. epidermidis 2265; assay: MBC, standard assay procedures; assay type: cell-based; conditions: Staphylococcus epidermidis; Staph. epidermidis 2265; Table VIII; read-out: MBC
Procedure: as §3, §1

[28] = test system: Strep. faecalis 657; assay: MBC, standard assay procedures; assay type: cell-based; conditions: Enterococcus faecalis; Strep. faecalis 657; Table VIII; read-out: MBC
Procedure: as §3, §1

[29] = test system: Staph. haemolyticus 651; assay: MBC, standard assay procedures; assay type: cell-based; conditions: Staphylococcus haemolyticus; Staph. haemolyticus 651; Table VIII; read-out: MBC
Procedure: as §3, §1

[30] = test system: Staph. aureus 675; assay: MBC, standard assay procedures; assay type: cell-based; conditions: Staphylococcus aureus; Staph. aureus 675; Table VIII; read-out: MBC
Procedure: as §3, §1

[31] = test system: Staph. epidermidis 2479; assay: MBC, standard assay procedures; assay type: cell-based; conditions: Staphylococcus epidermidis; Staph. epidermidis 2479; Table VIII; read-out: MBC
Procedure: as §3, §1

[32] = test system: Staph. aureus HH127; assay: MBC, standard assay procedures; assay type: cell-based; conditions: Staphylococcus aureus; Staph. aureus HH127; Table VIII; read-out: MBC
Procedure: as §3, §1

[33] = test system: Strep. faecalis 34358; assay: MBC, standard assay procedures; assay type: cell-based; conditions: Enterococcus faecalis; Strep. faecalis 34358; Table VIII; read-out: MBC
Procedure: as §3, §1

[34] = test system: Staph. aureus 2630; assay: Mouse protection assay; assay type: in vivo; conditions: Staphylococcus aureus, 2630, 1 h
[35] = test system: Strep. faecalis 34358; assay: Mouse protection assay; assay type: in vivo; conditions: Enterococcus faecalis, 1 h; mice; intraperitoneal s.c. infection; Strep. faecalis 34358, Dosage as No. of LD50's = 3.5; treatment one hour post infection; Table X; read-out: ED50
[36] = test system: A. parvosata; assay: Susceptibility of A. parvosata to antibiotic disks; assay type: cell-based, Actinomadura parvosata; conditions: BBL susceptibility disks on nutrient agar; rifampin 5 ug, penicillin 10 U; 1 week at 28°C
Procedure: Susceptibility of A. parvosata to antibiotics was examined by placing BBL susceptibility disks on nutrient agar plates seeded with A. parvosata. Plates were placed at 4°C for 1 hour to permit diffusion of the antibiotics. Diameters of the zones of inhibition were measured after incubation for 1 week at 28°C.

CNC1C(=O)NC2Cc3ccc(cc3)Oc3cc4cc(c3O)Oc3ccc(cc3Cl)C(O)C3NC(=O)C(NC(=O)C4NC(=O)C(NC2=O)c2cc(cc(O)c2Cl)Oc2cc1ccc2O)c1ccc(O)c(c1)-c1c(O)cc(O)cc1C(C(=O)O)NC3=O (stereo not drawn) [Aglycone 1]
MIC [1]: 25 µg/mL (≈ 20.6 µM)
MIC [2]: 0.8 µg/mL (≈ 0.66 µM)
MBC [3]: 0.8 µg/mL (≈ 0.66 µM)
MBC [4]: 3.1 µg/mL (≈ 2.56 µM)
MBC [5]: 3.1 µg/mL (≈ 2.56 µM)
MBC [6]: 25 µg/mL (≈ 20.6 µM)
MBC [7]: 0.8 µg/mL (≈ 0.66 µM)
MBC [8]: 1.6 µg/mL (≈ 1.32 µM)
MBC [9]: 1.6 µg/mL (≈ 1.32 µM)
MBC [10]: 1.6 µg/mL (≈ 1.32 µM)
ED50 [11]: 0.88 mg/kg
MIC [12]: 0.4 µg/mL (≈ 0.33 µM)
MIC [13]: 0.8 µg/mL (≈ 0.66 µM)
MIC [14]: 0.4 µg/mL (≈ 0.33 µM)
MIC [15]: 0.4 µg/mL (≈ 0.33 µM)
MIC [16]: 0.4 µg/mL (≈ 0.33 µM)
MIC [17]: 1.6 µg/mL (≈ 1.32 µM)
MIC [18]: 0.8 µg/mL (≈ 0.66 µM)
MIC [19]: 3.1 µg/mL (≈ 2.56 µM)
MIC [20]: 1.6 µg/mL (≈ 1.32 µM)
MIC [21]: 0.8 µg/mL (≈ 0.66 µM)
MIC [22]: 0.8 µg/mL (≈ 0.66 µM)
MIC [23]: 0.8 µg/mL (≈ 0.66 µM)
MIC [24]: 0.4 µg/mL (≈ 0.33 µM)
MIC [25]: 1.6 µg/mL (≈ 1.32 µM)
MBC [26]: 3.1 µg/mL (≈ 2.56 µM)
MBC [27]: 0.4 µg/mL (≈ 0.33 µM)
MBC [28]: 100 µg/mL (≈ 82.4 µM)
MBC [29]: 6.3 µg/mL (≈ 5.19 µM)
MBC [30]: 6.3 µg/mL (≈ 5.19 µM)
MBC [31]: 6.3 µg/mL (≈ 5.19 µM)
MBC [32]: 1.6 µg/mL (≈ 1.32 µM)
MBC [33]: 100 µg/mL (≈ 82.4 µM)
ED50 [34]: 6.4 mg/kg
ED50 [35]: 5 mg/kg

CO[C@H]1/C=C/O[C@@]2(C)Oc3c(C)c(O)c4c(O)c(c(/C=N/N5CCN(C)CC5)c(O)c4c3C2=O)NC(=O)/C(C)=C\C=C\[C@H](C)[C@H](O)[C@@H](C)[C@@H](O)[C@@H](C)[C@H](OC(C)=O)[C@@H]1C [rifampin]
susceptibility of A. parvosata to antibiotic disks (zones of inhibition) [36]: resistant

Reference: EP0255256A2, “Antibiotics produced by actinomadura parvosata” (SMITHKLINE BECKMAN CORPORATION, priority 1986, dated 1988)
